Test results: PubChem BioAssay AID256 (DTP/NCI, 2004)
Several values for one entry are separate records, joined by “and”; a condition that tells them apart may be missing. Equal values may be shown once. Toxic doses and inconclusive results are not listed. Rule for the calls: active = survival T/C of 150% or more; inactive = T/C below 125% in these data.

System: CD2F1 mice, L1210 leukemia ip, survival T/C
Assay: NCI In Vivo Anticancer Drug Screen. Data for tumor model L1210 Leukemia (intraperitoneal) in CD2F1 (CDF1) mice
Details: endpoint: mean survival time, higher = longer survival
Outline: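 Tumor-bearing mice (transplanted tumor) were split into treated and vehicle control groups, and the measured endpoint of each treated group was divided by that of its vehicle controls.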

[1] = dose: 75.0 mg/kg/injection, schedule: Q01DX001 (ip), vehicle: saline
[2] = dose: 150.0 mg/kg/injection, schedule: Q01DX001 (ip), vehicle: saline
[3] = dose: 25.0 mg/kg/injection, schedule: Q01DX009 (ip), vehicle: Klucel (hydroxypropylcellulose) (HPC)
[4] = dose: 50.0 mg/kg/injection, schedule: Q01DX009 (ip), vehicle: Klucel (hydroxypropylcellulose) (HPC)
[5] = dose: 400.0 mg/kg/injection, schedule: Q01DX009 (ip), vehicle: saline with Tween-80
[6] = dose: 100.0 mg/kg/injection, schedule: Q04DX003 (ip), vehicle: saline with Tween-80
[7] = dose: 200.0 mg/kg/injection, schedule: Q04DX003 (ip), vehicle: saline with Tween-80
[8] = dose: 400.0 mg/kg/injection, schedule: Q04DX003 (ip), vehicle: saline with Tween-80

Measured: T/C

CC(=O)Nc1cc(Cl)c2ncn(C3OC(CO)C(O)C3O)c2n1 (stereo unspecified)
inactive: dose: 12.5 mg/kg/injection, schedule: Q01DX005 (ip), vehicle: water 102 % of control | dose: 25.0 mg/kg/injection, schedule: Q01DX005 (ip), vehicle: water 95 % of control | dose: 50.0 mg/kg/injection, schedule: Q01DX005 (ip), vehicle: water 102 % of control | dose: 100.0 mg/kg/injection, schedule: Q01DX005 (ip), vehicle: water 91 % of control | dose: 200.0 mg/kg/injection, schedule: Q01DX005 (ip), vehicle: water 101 % of control

C[N+]([O-])(C/C=C/c1ccccc1)c1ccccc1 (stereo unspecified)
inactive: [1] 101 % of control | [2] 97 % of control | dose: 300.0 mg/kg/injection, schedule: Q01DX001 (ip), vehicle: saline 98 % of control

O=c1cc(-c2ccccc2)ss1
inactive: dose: 100.0 mg/kg/injection, schedule: Q04DX003 (ip), vehicle: Klucel (hydroxypropylcellulose) (HPC) 104 % of control | dose: 200.0 mg/kg/injection, schedule: Q04DX003 (ip), vehicle: Klucel (hydroxypropylcellulose) (HPC) 100 % of control | dose: 400.0 mg/kg/injection, schedule: Q04DX003 (ip), vehicle: Klucel (hydroxypropylcellulose) (HPC) 105 % of control

COC(=O)CC1(C(=O)OC)Nc2ccc(Br)cc2C(=O)O1 (stereo unspecified)
inactive: dose: 100.0 mg/kg/injection, schedule: Q01DX001 (ip), vehicle: saline with Tween-80 96 % of control | dose: 200.0 mg/kg/injection, schedule: Q01DX001 (ip), vehicle: saline with Tween-80 96 % of control | dose: 400.0 mg/kg/injection, schedule: Q01DX001 (ip), vehicle: saline with Tween-80 94 % of control

CC1(C)CC(=O)C(CSC(=O)c2ccccc2)C(=O)C1
inactive: dose: 3.12 mg/kg/injection, schedule: Q01DX009 (ip), vehicle: Klucel (hydroxypropylcellulose) (HPC) 96 % of control and 100 % of control | dose: 6.25 mg/kg/injection, schedule: Q01DX009 (ip), vehicle: Klucel (hydroxypropylcellulose) (HPC) 101 % of control and 105 % of control | dose: 12.5 mg/kg/injection, schedule: Q01DX009 (ip), vehicle: Klucel (hydroxypropylcellulose) (HPC) 103 % of control and 104 % of control | [3] 100 % of control and 105 % of control | [4] 102 % of control and 106 % of control | dose: 100.0 mg/kg/injection, schedule: Q01DX009 (ip), vehicle: Klucel (hydroxypropylcellulose) (HPC) 102 % of control

C[C@H](CCC[C@H](C)OS(=O)(=O)c1ccccc1)OS(=O)(=O)c1ccccc1
inactive: dose: 12.5 mg/kg/injection, schedule: Q01DX009 (ip), vehicle: saline with Tween-80 101 % of control and 110 % of control | [5] 114 % of control and 104 % of control

O=C1NCCS1
inactive: [1] 98 % of control | [2] 104 % of control

Cc1cc([N+](=O)[O-])c(S(N)(=O)=O)c([N+](=O)[O-])c1
inactive: [3] 98 % of control | [4] 95 % of control

CCN=C(N)/N=C(\N)C(Cl)(Cl)Cl
inactive: dose: 100.0 mg/kg/injection, schedule: Q01DX001 (ip), vehicle: saline 101 % of control | dose: 200.0 mg/kg/injection, schedule: Q01DX001 (ip), vehicle: saline 96 % of control | dose: 400.0 mg/kg/injection, schedule: Q01DX001 (ip), vehicle: saline 90 % of control

NN=C(c1ccccc1)c1ccccc1
inactive: dose: 150.0 mg/kg/injection, schedule: Q04DX003 (ip), vehicle: Klucel (hydroxypropylcellulose) (HPC) 93 % of control | dose: 225.0 mg/kg/injection, schedule: Q04DX003 (ip), vehicle: Klucel (hydroxypropylcellulose) (HPC) 95 % of control | dose: 335.0 mg/kg/injection, schedule: Q04DX003 (ip), vehicle: Klucel (hydroxypropylcellulose) (HPC) 98 % of control

O=C(Nc1ccccn1)OCc1ccccc1
inactive: dose: 100.0 mg/kg/injection, schedule: Q04DX002 (ip), vehicle: saline with Tween-80 112 % of control | dose: 200.0 mg/kg/injection, schedule: Q04DX002 (ip), vehicle: saline with Tween-80 101 % of control | dose: 400.0 mg/kg/injection, schedule: Q04DX002 (ip), vehicle: saline with Tween-80 97 % of control

Cc1cn(C2CCC3(C)C(=CCC4C3CCC3(C)C(C(C)CCCC(C)C)CCC43)C2)c(=O)[nH]c1=O (stereo unspecified)
inactive: dose: 37.5 mg/kg/injection, schedule: Q01DX001 (ip), vehicle: Klucel (hydroxypropylcellulose) (HPC) 88 % of control | dose: 75.0 mg/kg/injection, schedule: Q01DX001 (ip), vehicle: Klucel (hydroxypropylcellulose) (HPC) 91 % of control | dose: 150.0 mg/kg/injection, schedule: Q01DX001 (ip), vehicle: Klucel (hydroxypropylcellulose) (HPC) 91 % of control | dose: 300.0 mg/kg/injection, schedule: Q01DX001 (ip), vehicle: Klucel (hydroxypropylcellulose) (HPC) 91 % of control

c1ccc2c(c1)C(=NN=C1c3ccccc3-c3ccccc31)c1ccccc1-2
inactive: dose: 100.0 mg/kg/injection, schedule: Q01DX009 (ip), vehicle: saline with Tween-80 94 % of control | [6] 94 % of control | dose: 200.0 mg/kg/injection, schedule: Q01DX009 (ip), vehicle: saline with Tween-80 92 % of control | [7] 88 % of control | [5] 94 % of control | [8] 88 % of control

CC(C)c1ccc(C(=O)C(O)c2ccc(C(C)C)cc2)cc1 (stereo unspecified)
inactive: [6] 102 % of control | [7] 102 % of control | [8] 95 % of control

O=C(c1ccccc1)C1(Br)CCC1
inactive: [6] 95 % of control | [7] 97 % of control | [8] 100 % of control

COC(=O)C(CS)NC(=O)CCNC(=O)OCc1ccccc1 (stereo unspecified)
inactive: dose: 12.5 mg/kg/injection, schedule: Q01DX009 (ip), vehicle: sodium bicarbonate 100 % of control | dose: 25.0 mg/kg/injection, schedule: Q01DX009 (ip), vehicle: sodium bicarbonate 96 % of control | dose: 50.0 mg/kg/injection, schedule: Q01DX009 (ip), vehicle: sodium bicarbonate 91 % of control | dose: 100.0 mg/kg/injection, schedule: Q01DX009 (ip), vehicle: sodium bicarbonate 93 % of control | dose: 200.0 mg/kg/injection, schedule: Q01DX009 (ip), vehicle: sodium bicarbonate 88 % of control
